Patent US20240216357A1 (SICHUAN HUIYU PHARMACEUTICAL CO., LTD., priority 2021, published 2024)
Structures can show the parent of a compound that is named as a salt.

How the values were obtained:
NCI-H1417 cells = assay: In vitro cell proliferation detection (CellTiter-Glo, 7 days); type: cell-based; conditions: Homo sapiens, 168 h; NCI-H1417 cells, 7 days, CellTiter-Glo; read-out: NCI-H1417 proliferation inhibition IC50
LSD1 = LSD1 (Homo sapiens (Human), UniProt O60341); assay: LSD1 enzyme activity detection (HTRF); type: biochemical; conditions: HTRF, H3K4me1 substrate; read-out: Inhibition of enzymatic activity of LSD1 IC50

SMILES | IC50 (NCI-H1417 cells) [nM] | IC50 (LSD1) [nM]
Cc1noc2cc(-c3oc(C(=O)N4C5CCC4CC(N)C5)nc3-c3ccc(C#N)c(F)c3)c(F)cc12 (stereo not drawn) [Example 222, 4-(2-(3-amino-8-azabicyclo[3.2.1]octane-8-carbonyl)-5-(5-fluoro-3-methylbenzo[d]isoxazol-6-yl)oxazol-4-yl)-2-fluorobenzonitrile hydrochloride] | 41 | 14.4
COc1ccc(-c2c(-c3ccc(C#N)c(F)c3)nc(N3CC4CC(C3)C4N)n3ccnc23)cc1F (stereo not drawn) [Example 167, 4-(5-(6-amino-3-azabicyclo [3.1.1]heptane-3-yl)-8-(3-fluoro-4-methoxyphenyl)imidazolo[1,2-c]pyrimidin-7-yl)-2-fluorobenzonitrile hydrochloride] | 155 | 78.4
Cc1ccc(-c2sc(C(=O)N3C4CCC3CC(N)C4)cc2-c2ccc(C#N)c(F)c2)c(F)c1 (stereo not drawn) [Example 6, 4-(5-(3-amino-8-azabicyclo[3.2.1]octane-8-carbonyl)-2-(2-fluoro-4-methylphenyl)thiophen-3-yl)-2-fluorobenzonitrile hydrochloride] | 3.64 | 0.3 ± 0.25
N#Cc1ccc(-c2cc(C(=O)N3C4CCC3CC(N)C4)sc2-c2cc3[nH]nnc3cc2F)cc1F (stereo not drawn) [Example 216, 4-(5-(3-amino-8-azabicyclo [3.2.1]octan-8-carbonyl)-2-(5-fluoro-1H-benzo [d][1,2,3]triazol-6-yl)thio-phen-3-yl)-2-fluorobenzo-nitrile hydrochloride] | 20.9 | 8.14 ± 1.84
CC(C)(O)Cc1ccc(-c2c(O)cc(N3CCC(N)CC3)nc2-c2ccc(C#N)c(F)c2)c(F)c1 [Example 32, 4-(6-(4-aminopiperidin-1-yl)-3-(2-fluoro-4-(2-hydroxy-2-methylpropyl)phenyl)-4-hydroxypyridin-2-yl)-2-fluorobenzonitrile hydrochloride] | 262 | 48.8
COc1ccc(-c2c(O)cc(N3CCC(N(C)C)CC3)nc2-c2ccc(C#N)c(F)c2)cc1F [Example 56, 4-(6-(4-(dimethylamino)piperidin-1-yl)-3-(3-fluoro-4-methoxyphenyl)-4-hydroxypyridin-2-yl)-2-fluorobenzonitrile] | 4.88 | 2.9 ± 1.2
Cc1ccc(-c2c(O)cc(N3CCC(N)CC3)nc2-c2ccc(C#N)c(F)c2)cc1O [Example 60] | 0.49 | 0.4 ± 0.2
COc1cc(N2CCC(N)CC2)nc(-c2ccc(C#N)c(F)c2)c1-c1ccc(C(F)(F)F)c(O)c1 [Example 99, 4-(6-(4-aminopiperidin-1-yl)-3-(3-hydroxy-4-(trifluoromethyl)phenyl)-4-methoxypyridin-2-yl)-2-fluorobenzonitrile hydrochloride] | 1.72 | 4.9 ± 1.2
COc1ccc(-c2c(O)cc(N3C4CCC3CC(N)C4)nc2-c2ccc(C#N)c(F)c2)cc1O (stereo not drawn) [Example 37, 4-(6-(3-amino-8-azabicyclo[3.2.1]octane-8-yl)-4-hydroxy-3-(3-hydroxy-4-methoxyphenyl)pyridin-2-yl)-2-fluorobenzonitrile] | 173 | 15.1
COc1ccc(-c2cnc(N3CC(N)C3)c(C#N)c2-c2ccc(C#N)c(F)c2)cc1O [Example 82, 2-(3-aminoazetidin-1-yl)-4-(4-cyano-3-fluorophenyl)-5-(3-hydroxy-4-methoxyphenyl) nicotinonitrile] | 72.4 | 12.9 ± 0.2
COc1ccc(-c2cnc(N3CCC(N)C(F)C3)c(C#N)c2-c2ccc(C#N)c(F)c2)cc1O (stereo not drawn) [Example 77, 2-(4-amino-3-fluoropiperidin-1-yl)-4-(4-cyano-3-fluorophenyl)-5-(3-hydroxy-4-methoxyphenyl) nicotinonitrile] | 2.19 | 2.4 ± 0.9
COc1ccc(-c2c(OC)cc(N3CCC(N)CC3)nc2-c2ccc(C#N)c(F)c2)cc1C#N [Example 93, 4-(6-(4-aminopiperidin-1-yl)-3-(3-cyano-4-methoxyphenyl)-4-methoxypyridin-2-yl)-2-fluorobenzonitrile] | 30.7 | 153
COc1ccc(-c2c(O)cc(N3CCC(N)CC3)nc2-c2ccc(C#N)c(F)c2)cc1N [Example 44] | 28.9 | 12.8 ± 4.6
COc1ccc(-c2c(-c3ccc(C#N)cc3)nc(N3C4CCC3CC(N)C4)n3ccnc23)cc1F (stereo not drawn) [Example 178, 4-(5-(3-amino-8-azabicyclo [3.2.1]octane-8-yl)-8-(3-fluoro-4-methoxyphenyl)imidazolo[1,2-c]pyrimidin-7-yl) benzonitrile hydrochloride] | 6.24 | 3.8 ± 2.2
COc1ccc(-c2c(-c3ccc(C#N)nc3)nc(N3C4CCC3CC(N)C4)n3ccnc23)cc1F (stereo not drawn) [Example 176, 5-(5-(3-amino-8-azabicyclo[3.2.1]octane-8-yl)-8-(3-fluoro-4-methoxyphenyl)imidazolo[1,2-c]pyrimidin-7-yl) picolinonitrile hydrochloride] | 21.6 | 16.8
N#Cc1ccc(-c2nc(N3CCC(N)CC3)cc(O)c2-c2ccn3ccnc3c2)cc1F [Example 17, 4-(6-(4-aminopiperidin-1-yl)-4-hydroxy-3-(imidazolo[1,2-a]pyridin-7-yl)pyridin-2-yl)-2-fluorobenzonitrile hydrochloride] | > 1000 | 19.4

The remaining lines, values ahead:

IC50 (NCI-H1417 cells) [nM] | IC50 (LSD1) [nM] | SMILES
8.35 | 2.5 ± 1.7 | COc1ccc(-c2c(OCC3CCC3)cc(N3CCC(N)CC3)nc2-c2ccc(C#N)c(F)c2)cc1O [Example 107, 4-(6-(4-aminopiperidin-1-yl)-4-(cyclobutylmethoxy)-3-(3-hydroxy-4-methoxyphenyl)pyridin-2-yl)-2-fluorobenzonitrile hydrochloride]
2.98 | 140 | O=C(c1cc(CN[C@@H]2C[C@H]2c2ccc(F)cc2)nc(-c2ccc(-n3ccnn3)cc2)n1)N1CCC(F)(F)CC1 [Example 248, (2-(4-(1H-1,2,3-triazol-1-yl)phenyl)-6-((((1R,2S)-2-(4-fluorophenyl)cyclo-propyl)amino)methyl)pyrimidin-4-yl)(4,4-difluoropiperidin-1-yl) methanone]
3.87 | 1 ± 0.4 | COc1ccc(-c2c(OC)cc(N3CCC(N)CC3)cc2-c2ccc(C#N)c(F)c2)cc1O [Example 267, 5′-(4-aminopiperidin-1-yl)-3-fluoro-3″-hydroxy-3′,4″-dimethoxy-[1,1′:2′,1″-terphenyl]-4-nitrile trifluoroacetate]
5.07 | 116 | O=C(c1cc(CN[C@@H]2C[C@H]2c2ccc(F)cc2)nc(-c2ccc(N3CCOCC3)cc2)n1)N1CCC(F)(F)CC1 [Example 244, (4,4-difluoropiperidin-1-yl)(6-(((1R,2S)-2-(4-f1uorophenyl)cyclopropyl)amino)methyl)-2-(4-morpholinophenyl) pyrimidin-4-yl)methanone hydrochloride]
112 | 0.61 ± 0.13 | N#Cc1ccc(-c2nc(N3CCC(N)CC3)n3ccnc3c2-c2ccc3oc(=O)[nH]c3c2)cc1F [Example 129, 4-(5-(4-aminopiperidin-1-yl)-8-(2-oxo-2,3-dihydrobenzo[d]oxazol-5-yl)imidazolo[1,2-c]pyrimidin-7-yl)-2-fluorobenzonitrile]
2.83 | 0.69 ± 0.18 | COc1ccc(-c2c(-c3ccc(C#N)c(F)c3)nc(N3CCC[C@@H](N)C3)n3ccnc23)cc1O [Example 139, (R)-4-(5-(3-aminopiperidin-1-yl)-8-(3-hydroxy-4-methoxyphenyl)imidazolo[1,2-c]pyrimidin-7-yl)-2-fluorobenzonitrile hydrochloride]
1.33 | 0.39 | Cc1nc(N2CCC(N)CC2)c(C#N)c(-c2ccc(C#N)c(F)c2)c1-c1cc2onc(C)c2cc1F [Example 277, 2-(4-aminopiperidin-1-yl)-4-(4-cyano-3-fluorophenyl)-5-(5-fluoro-3-methylbenzo[d]isoxazol-6-yl)-6-methylnicotinonitrile]
29.1 | 172 | CS(=O)(=O)N1CCN(C(=O)c2cc(CCN[C@@H]3C[C@H]3c3ccc(F)cc3)nc(-c3ccc(-n4cccn4)cc3)c2)CC1 [Example 255, (2-(4-(1H-pyrazol-1-yl)phenyl)-6-(2-(((1R,2S)-2-(4-fluorophenyl)cyclopropyl)amino)ethyl)pyridin-4-yl) (4-(methylsulfonyl)piperazin-1-yl)methanone]
0.594 | 1.2 ± 0.7 | COc1ccc(-c2c(OC(F)F)cc(N3CCC(N)CC3)nc2-c2ccc(C#N)c(F)c2)cc1O [Example 106, 4-(6-(4-aminopiperidin-1-yl)-4-(difluoromethoxy)-3-(3-hydroxy-4-methoxyphenyl)pyridin-2-yl)-2-fluorobenzonitrile]
8.9 | 0.5 ± 0.2 | Cc1ccc(-c2c(-c3ccc(C#N)c(F)c3)nc(N(C)CCCN)n3ccnc23)cc1O [Example 146, 4-(5-((3-aminopropyl) (methyl)amino)-8-(3-hydroxy-4-methylphenyl)imidazolo[1,2-c]pyrimidin-7-yl)-2-fluorobenzonitrile]
78 | 6.9 ± 1.3 | CN(CCCN)c1nc(-c2ccc(C#N)c(F)c2)c(-c2ccc(F)c(O)c2)c2nccn12 [Example 148, 4-(5-((3-aminopropyl) (methyl)amino)-8-(4-fluoro-3-hydroxyphenyl)imidazolo [1,2-c]pyrimidin-7-yl)-2-fluorobenzonitrile]
2.83 | 49.6 | O=C(c1cc(CN[C@@H]2C[C@H]2c2ccc(F)cc2)nc(-c2ccc(-n3ccnn3)cc2)n1)N1CCOCC1 [Example 242]
8 | 11.5 ± 4.4 | CC1(N)CCN(c2nc(-c3ccc(C#N)c(F)c3)c(-c3ccc(F)c(O)c3)c3nccn23)CC1 [Example 147, 4-(5-(4-amino-4-methylpiperidin-1-yl)-8-(4-fluoro-3-hydroxyphenyl)imidazolo[1,2-c]pyrimidin-7-yl)-2-fluorobenzonitrile]
16 | 4 ± 1.7 | COc1ccc(-c2c(OCC3COC3)cc(N3CCC(N)CC3)nc2-c2ccc(C#N)c(F)c2)cc1O [Example 109, 4-(6-(4-aminopiperidin-1-yl)-3-(3-hydroxy-4-methoxyphenyl)-4-(oxetane-3-yl-methoxy)pyridin-2-yl)-2-fluorobenzonitrile hydrochloride]
